Two molecules from publication PMC8583417, “Evaluation of the Antimicrobial Efficacy of N-Acetyl-L-Cysteine, Rhamnolipids, and Usnic Acid—Novel Approaches to Fight Food-Borne Pathogens” (International Journal of Molecular Sciences, 2021) can be followed below.

One assay relates to E. coli 683/17. Description: MIC for reduction of preformed biofilm (crystal violet staining). To be noted: for maximal achieved inhibition (MICBR80 not reached), biofilm reduction: preformed biofilm, within tested concentrations; for MICBR80: ≥80% reduction of preformed biofilm (18 h), 20 h with substance. The class given is cell-based, Escherichia coli. As for the experimental part:
(§1) Ten concentrations of NAC, RLs, and UA were tested to determine the minimum inhibitory concentration for planktonic growth, and subsequently, the six highest concentrations were applied on preformed biofilms to evaluate the biofilm eradication ability of the compounds. MIC was defined as the lowest substance concentration able to inhibit at least 80% of microbial growth (MICPC80 for planktonic cells, MICBC80 for further growth of biofilm cells), inhibit 80% of metabolic activity (MICBM80 for biofilm metabolic activity, MICMPB80 for metabolic activity of preformed biofilm), prevent biofilm formation by at least 80% (MICBF80 for biofilm formation), or reduce a preformed biofilm by at least 80% (MICBR80 for biofilm reduction). The results of MICs are summarized in Table 1 (planktonic cells) and Table 2 (biofilm-associated cells).
(§2) The determination of MICs was performed according to Chlumsky et al.. Briefly, 96-well flat-bottomed microtiter plates were inoculated with 75 µL (for biofilm formation) or 100 µL (for preformed biofilm) of bacterial suspension (A625nm 0.08 to 0.1) in technical triplicates and were then carefully mixed with the dilution series of the test substances (24 h cultivation at 25 °C for S. Infantis, 37 °C for other strains) or were directly cultivated to preform biofilms (18 h). For a positive control of bacterial growth, the inoculum was mixed with a pure sterile medium. Furthermore, the sterile medium was included in the plate as a marker of potential microbial contamination. To evaluate planktonic cells growth (MICPC80) and further growth of biofilm cells (MICBC80), the optical density of the content of the microtiter plates was measured spectrophotometrically at 625 nm before and after 24 h (for biofilm formation) of cultivation or before and after additional 20 h incubation with the tested compound (for preformed biofilm). The difference of A625nm was considered as a measure of the ability of cells to grow in the presence of the tested substances. To evaluate the inhibition of biofilm formation (MICBF80) and reduction in preformed biofilms (MICBR80), biomass was quantified using crystal violet staining, and its metabolic activity (MICBM80 and MICMPB80) was estimated by using the MTT (thiazyl tetrazolium bromide, Sigma-Aldrich, USA) reduction assay, both measured spectrophotometrically at 595 nm.
(§3) All inhibitions were calculated using the formula of Chlumsky et al. below (Equation (1)):(1) A625(595)nm inhibition (%)=A625(595)nm (control) – A625(595)nm(natural substance)/A625(595)nm (control)× 100 where A625(595)nm (control) is the absorbance of bacterial suspension/biofilm itself, and A625(595)nm(natural substance) is the absorbance of the bacterial suspension/biofilm with the added natural substance (NAC, RLs, and UA).
(§4) When the minimum inhibitory concentration could not be determined, the MIC was established as >the highest tested concentration for NAC, RLs, and UA.

For another assay, the system named is S. aureus 1241. Kind of assay: CLSM analysis, biofilm prevention. The class given is cell-based, Staphylococcus aureus. The following applies: for Thickness (µm) MICBM80 / Thickness (µm) subCBM80: 24 h exposure; for Thickness (µm) MICBM80: substance at its MICBM80, mean ± SD; for Thickness (µm) subCBM80: substance at subinhibitory concentration, mean ± SD. As for the experimental part: (§5) Biofilm prevention and removal analyses were performed using previously determined minimum inhibitory and subinhibitory concentrations for metabolic activity (MICBM80, subCBM80; MICMPB80, subCMPB80) of NAC, RLs, and UA specific for each tested strain. Selected concentrations were used to evaluate the inhibition of biofilm formation (biofilm prevention) and the reduction in previously formed biofilms (biofilm removal) for the same set of microorganisms, with the exception of S. Infantis, which was excluded from the analysis due to its inability to form biofilm in the selected microtiter plate. Biofilm prevention and removal were observed using CLSM with specific staining to distinguish between live and membrane-compromised cells. Images were analyzed to evaluate (i). the total volume of the biomass, (ii). ratios of live and membrane-compromised cells, and (iii). to calculate biofilm volume reduction for individual organisms after the respective treatment types. The total biofilm volume was normalized by the area of the well and expressed as an average biofilm thickness. Complete data are provided in Supplementary Materials (Tables S1–S8).
(§6) For both inhibition and reduction of biofilms, overnight cultures from BHI were diluted in TSB + 1% Glc to reach an absorbance of 0.08 to 0.1 at 625 nm. The inoculum (150 µL) was transferred into wells of the 96-well flat-bottomed Ibidiμ-Plate (Ibidi, Gräfelfing, Germany) and mixed with 150 µL of each of the three tested substances in technical quadruplicates, followed by incubation at 37 °C for 24 h. Simultaneously, the prepared bacterial suspensions were inoculated to an additional microtiter plate (200 µL) and allowed to form biofilm overnight (18 h at 37 °C). After the incubation, the content of the well was drained off, and 200 µL of each of the three tested substances was added to the plate, which was then incubated for an additional 20 h. The used concentrations of the substances represented the subinhibitory and minimum inhibitory concentrations for metabolic activity (subCBM80, MICBM80; subCMPB80, MICMPB80). Both setups contained a positive control of the bacterial growth (inoculum mixed with sterile TSB + 1% Glc medium) and a control monitoring microbial contamination (sterile medium). Non-treated wells were used as a positive control for comparison between non-treated and treated biofilm mass.
(§7) Prior to the imaging, the wells were stained with the LIVE/DEAD® BacLight™ Bacterial Viability Kit (Thermo Fisher Scientific, MA, USA) following the manufacturer’s guidelines and Drago et al.. Briefly, equal volumes of SYTO® 9 and propidium iodide were combined with the sterile distilled water to reach a final concentration of […]. The biofilm mass was stained using 300 µL of the staining solution per well followed by incubation at 37 °C in the dark for 15 min. Stained wells were washed once with sterile distilled water, which was then added to each well (300 µL). Images were acquired with an inverted Leica SP5 CLSM using a 1.25× dry objective (WD 3.7 mm, Z-resolution 27 µm, up to 24 Z-stacks per well) to visualize an entire well. Samples were kept at the cultivation conditions (37 °C, 5% CO2, 90% humidity) with an OkoLabs stage top environmental chamber (Oko Labs, PA, USA). Fluorophore excitation lasers and emission bandwidths were as follows: SYTO® 9 (ex/em 485/498 nm) 488 nm excitation, 495 to 550 nm emission collection; propidium iodide (ex/em 535/617 nm) 561 nm excitation, 595 to 650 nm emission collection. The laser beam scanned the visual field at a frequency of 600 Hz. The wells were captured in snapshots of 1024 × 1024 pixels representing the area of 153.76 mm^2.
(§8) All collected images were statistically evaluated to quantify biovolume utilizing the surface estimation procedure described in Parker et al.. […]

In a further assay the test system is S. aureus 816. Description: CLSM analysis, biofilm prevention. Format: cell-based, Staphylococcus aureus. To be noted: for Thickness (µm) MICBM80 / Thickness (µm) subCBM80: 24 h exposure; for Thickness (µm) MICBM80: substance at its MICBM80, mean ± SD; for Thickness (µm) subCBM80: substance at subinhibitory concentration, mean ± SD. As for the experimental part: as §5, §6, §7, §8

Another assay concerns L. monocytogenes 164. Description: MIC for reduction of preformed biofilm (crystal violet staining). Format: cell-based, Listeria monocytogenes. To be noted: for MICBR80: ≥80% reduction of preformed biofilm (18 h), 20 h with substance. As to the method:
as §1, §2, §3, §4

The next assay has as its system L. monocytogenes 149. The description is as above. Format: cell-based, Listeria monocytogenes. To be noted: for MICBR80: ≥80% reduction of preformed biofilm (18 h), 20 h with substance. As to the method:
as §1, §2, §3, §4

Where [1] appears, read: 24 h, MIC and subinhibitory concentration.
[2] abbreviates: preformed biofilm, within tested concentrations.

As for `CC(=O)c1c(O)c(C)c(O)c2c1OC1=CC(=O)C(C(C)=O)C(=O)C12C` (single isomer, unassigned; (+)) [UA, (+)-usnic acid], the “maximal achieved inhibition (MICBR80 not reached), biofilm reduction” value in the assay with E. coli 683/17 was 0%; in the assay on L. monocytogenes 149 (setting [2]), 69%. In addition, the results for the MICBR80 against E. coli 683/17, in the assay with L. monocytogenes 164 and against L. monocytogenes 149 were above 31.3 µg/mL, 1.96 µg/mL and above 31.3 µg/mL, respectively. For the same molecule, the “Thickness (µm) MICBM80” value in the assay on S. aureus 1241 is listed as 367 ± 40.5 µm; in the assay on S. aureus 816, 237 ± 41.9 µm. Moreover, the entries for the “Thickness (µm) subCBM80” value in the assay on S. aureus 1241 and in the assay with S. aureus 816 were 392 ± 21.7 µm and 270 ± 21 µm, respectively. The “proportion of membrane-compromised cells” value in the assay with S. aureus 816 (setting [1]) is reported as “up to 15%”.
On to `CC(=O)N[C@@H](CS)C(=O)O` [NAC, N-Acetyl-L-cysteine], for which the “maximal achieved inhibition (MICBR80 not reached), biofilm reduction” value in the assay with E. coli 683/17 is on record as 68%; in the assay on L. monocytogenes 164 (setting [2]), 46%. In addition, the MICBR80 in the assay with E. coli 683/17 is > 100,000 µg/mL; against L. monocytogenes 164 it was > 100,000 µg/mL; against L. monocytogenes 149, 100,000 µg/mL. Besides, the “proportion of membrane-compromised cells” value in the assay with S. aureus 1241 (setting [1]) is reported as “up to 25%”. The “Thickness (µm) MICBM80” value in the assay on S. aureus 1241 is recorded as 236 ± 50.5 µm; in the assay with S. aureus 816 it was 104 ± 67.8 µm. Moreover, the figures for the “Thickness (µm) subCBM80” value with S. aureus 1241 and in the assay with S. aureus 816 were 212 ± 16.1 µm and 181 ± 57.7 µm, respectively.
